Test results reported in patent publication US9505841B2, “Use of an anti-Ang2 antibody” (Samsung Electronics Co., Ltd., priority 2013, dated 2016).
Blank lines part the entries; values can stand above or below the molecule they belong to.

How the values were obtained:
[1] = tested on: LLC tumor; test: Co-administration of anti-Ang2 antibody and cisplatin in LLC lung cancer animal model; type: in vivo, mouse; settings: LLC mice; antibody 10 mg/kg i.p. every three days, five times; cisplatin 3 mg/kg i.p. once; control Fc of IgG1
Protocol: The synergistic effect of co-treatment of antibody 10D6 and cisplatin was examined.
In particular, referring to Example 14, LLC tumor cells were subcutaneously injected into mice. When the size of tumors reached 50˜100 mm^3, anti-Ang2 antibody 10D6 was injected at the concentration of 10 mg/kg via an intraperitoneal injection every three days a total of five times. After administering antibody 10D6 twice, 3 mg/kg of cisplatin (Sigma-Aldrich) was intraperitoneally injected once. The size of tumor (V) was calculated using the following formula: Volume (V)=(width)2×length/2
For comparison, the same experiment was performed to a control group treated with Fc of IgG1 and a comparative group treated with antibody 4H10.
In addition, an experiment was performed to examine whether the synergistic effect obtained by co-administration of 10D6 and cisplatin as described above is due to the increased transporting efficiency of the administered cisplatin induced by the vascular normalization by treatment of 10D6. Cisplatin binds to DNA in a living body and induces crosslinking, thereby inducing cell death. Rat monoclonal anti-Cisplatin modified DNA (CP9/19) antibody (1:200, Abcam), which is capable of binding to DNA modified by cisplatin in tumor frozen sections, and hamster anti-CD31 antibody (1:200, Millipore), were used for immunofluorescence staining, and fluorescence images were obtained using LSM5 confocal microscope (Zeiss). In addition, to examine necrotic region, the tumor frozen sections were stained with H&E according to standard protocol, and then, Eosin+ cell region in tumor was observed. The obtained results are illustrated in FIG. 18C.

[2] = tested on: Tie2 receptor; test: Tie2, Akt and 42/44 phosphorylation in HUVEC: antibody 10D6 versus 10D6 Fab; type: cell-based, human; settings: 60 nM 10D6 antibody or 10D6 Fab with 40 nM Ang2
Protocol: To see whether the activation of a Tie2 receptor is resulted from the dimerization of antibody 10D6, Fab fragments of antibody 10D6 were purified and then used for this experiment. The Fab fragments were obtained from antibody 10D6 using an Fab Preparation Kit (Pierce). As a digestion buffer, PBS containing 20 mM EDTA and 20 mM L-Cysteine was used, and the antibody was separated into Fab and Fc by the treatment with an immobilized papain at a room temperature for 2 hours. The Fc fragments were removed from the reaction solution using MabSelectSuRe column (GE Healthcare) to isolate and purify pure Fab fragments only.
HUVEC (ATCC) cells (1×10^6) were cultured in a 100 mm culture dish using EGM-2 (Lonza) media at 37° C. and when they reached 80˜90% confluency, the media were replaced with serum-free media (Lonza) and cultured at 37° C. for 6 to 16 hours. The dish was washed once with PBS and after the replacement with […] sodium orthovanadate (Sigma)-mixed serum free media (Lonza), they were further cultured for 10 min. After washed once with PBS, the cultured cells were treated with a mixture prepared by mixing 60 nM of 10D6 Ang2 antibody or 10D6 Fab with 40 nM of Ang2 protein (R&D systems) and letting them stand for 20 min. and further cultured for 10 min. […]

Molecule: N.N.[Cl][Pt][Cl] [cisplatin, reference compound]
tumor size decreased by, compared to the control [1]: 17.6%

phosphorylation of Tie2, Akt and 42/44 [2]: activation was not observed
B1: 10D6 Fab: Fab fragments of antibody 10D6 obtained by immobilized papain digestion and removal of Fc (antibody, V domains shown)
VH: DVQLQESGPGLVKPSQSLSLTCTVTGYSITSDYAWNWIRQFPGNKLEWMGYINYSGNTDYNPSLKSRSSITRDTSKNQFFLQLNSVTTGDTATYYCARGNFEGAMDYWGQGTSVTVSS
VL: SIVMTQTPKFLLVSAGDRVTITCKASQSVSNDVAWYQQKPGQSPKLLIYYASNRYPGVPDRFTGSGYGTDFTFTISTVQAEDLAVYFCQQDYSSPWTFGGGTKLEIK
